According to ChEMBL document CHEMBL1201862, “PubChem BioAssay data set” (2004):
One block for each molecule: values may come before it. The source made the active and inactive calls.

Experiments:
Exodeoxyribonuclease V = Exodeoxyribonuclease V (Escherichia coli (strain K12), UniProt P04993+P07648+P08394); assay: E. coli RecBCD inhibitors, dose response, counter-screen for AddAB inhibitor project, absorbance, V66 E. coli, mutant T4 phage (AID 492957); format: functional, cell-based, Escherichia coli str. K-12 substr. MG1655
Sequence of Exodeoxyribonuclease V (P04993 whole entry): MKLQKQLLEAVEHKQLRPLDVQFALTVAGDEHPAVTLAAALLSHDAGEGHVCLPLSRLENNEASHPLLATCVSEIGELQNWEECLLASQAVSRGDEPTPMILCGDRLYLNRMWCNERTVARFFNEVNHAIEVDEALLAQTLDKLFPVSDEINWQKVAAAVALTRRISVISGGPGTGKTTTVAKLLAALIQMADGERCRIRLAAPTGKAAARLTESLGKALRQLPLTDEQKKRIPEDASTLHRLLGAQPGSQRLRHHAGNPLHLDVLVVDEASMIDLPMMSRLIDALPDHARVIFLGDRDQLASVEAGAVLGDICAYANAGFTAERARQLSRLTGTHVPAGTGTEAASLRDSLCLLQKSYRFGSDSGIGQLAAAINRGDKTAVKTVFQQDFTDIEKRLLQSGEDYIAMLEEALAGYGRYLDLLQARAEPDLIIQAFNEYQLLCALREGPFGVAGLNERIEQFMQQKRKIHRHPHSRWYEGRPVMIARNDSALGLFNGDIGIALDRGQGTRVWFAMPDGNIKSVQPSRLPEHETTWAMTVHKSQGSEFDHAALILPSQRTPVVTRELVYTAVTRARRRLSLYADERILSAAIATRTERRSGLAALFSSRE
Sequence of Exodeoxyribonuclease V (P07648 whole entry): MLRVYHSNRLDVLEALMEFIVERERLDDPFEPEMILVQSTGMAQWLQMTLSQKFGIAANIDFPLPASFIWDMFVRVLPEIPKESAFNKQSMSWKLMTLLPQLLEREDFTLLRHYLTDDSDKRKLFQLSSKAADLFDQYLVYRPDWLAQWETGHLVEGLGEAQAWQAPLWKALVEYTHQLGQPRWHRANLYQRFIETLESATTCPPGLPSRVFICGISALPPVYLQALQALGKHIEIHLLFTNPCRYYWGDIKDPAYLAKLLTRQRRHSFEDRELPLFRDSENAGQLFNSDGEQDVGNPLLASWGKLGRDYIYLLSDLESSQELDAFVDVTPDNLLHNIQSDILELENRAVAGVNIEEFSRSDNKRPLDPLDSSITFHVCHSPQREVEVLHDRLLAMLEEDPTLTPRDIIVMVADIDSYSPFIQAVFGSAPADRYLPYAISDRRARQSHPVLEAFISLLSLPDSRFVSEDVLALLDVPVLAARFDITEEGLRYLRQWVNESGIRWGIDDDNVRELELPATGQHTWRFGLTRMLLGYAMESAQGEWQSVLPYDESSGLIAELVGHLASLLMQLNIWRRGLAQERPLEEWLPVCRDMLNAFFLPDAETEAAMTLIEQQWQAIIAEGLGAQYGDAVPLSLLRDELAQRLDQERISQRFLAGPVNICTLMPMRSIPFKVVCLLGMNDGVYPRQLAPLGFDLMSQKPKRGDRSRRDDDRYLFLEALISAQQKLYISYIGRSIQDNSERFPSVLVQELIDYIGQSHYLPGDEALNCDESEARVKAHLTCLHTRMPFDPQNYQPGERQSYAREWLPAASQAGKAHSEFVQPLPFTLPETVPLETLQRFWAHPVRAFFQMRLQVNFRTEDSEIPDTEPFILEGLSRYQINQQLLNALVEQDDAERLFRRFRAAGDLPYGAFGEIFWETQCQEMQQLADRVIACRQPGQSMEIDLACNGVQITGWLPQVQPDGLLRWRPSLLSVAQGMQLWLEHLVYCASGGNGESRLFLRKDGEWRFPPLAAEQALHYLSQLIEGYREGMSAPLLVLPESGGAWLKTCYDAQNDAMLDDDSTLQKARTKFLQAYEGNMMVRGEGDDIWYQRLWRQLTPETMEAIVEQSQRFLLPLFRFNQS
Sequence of Exodeoxyribonuclease V (P08394 whole entry): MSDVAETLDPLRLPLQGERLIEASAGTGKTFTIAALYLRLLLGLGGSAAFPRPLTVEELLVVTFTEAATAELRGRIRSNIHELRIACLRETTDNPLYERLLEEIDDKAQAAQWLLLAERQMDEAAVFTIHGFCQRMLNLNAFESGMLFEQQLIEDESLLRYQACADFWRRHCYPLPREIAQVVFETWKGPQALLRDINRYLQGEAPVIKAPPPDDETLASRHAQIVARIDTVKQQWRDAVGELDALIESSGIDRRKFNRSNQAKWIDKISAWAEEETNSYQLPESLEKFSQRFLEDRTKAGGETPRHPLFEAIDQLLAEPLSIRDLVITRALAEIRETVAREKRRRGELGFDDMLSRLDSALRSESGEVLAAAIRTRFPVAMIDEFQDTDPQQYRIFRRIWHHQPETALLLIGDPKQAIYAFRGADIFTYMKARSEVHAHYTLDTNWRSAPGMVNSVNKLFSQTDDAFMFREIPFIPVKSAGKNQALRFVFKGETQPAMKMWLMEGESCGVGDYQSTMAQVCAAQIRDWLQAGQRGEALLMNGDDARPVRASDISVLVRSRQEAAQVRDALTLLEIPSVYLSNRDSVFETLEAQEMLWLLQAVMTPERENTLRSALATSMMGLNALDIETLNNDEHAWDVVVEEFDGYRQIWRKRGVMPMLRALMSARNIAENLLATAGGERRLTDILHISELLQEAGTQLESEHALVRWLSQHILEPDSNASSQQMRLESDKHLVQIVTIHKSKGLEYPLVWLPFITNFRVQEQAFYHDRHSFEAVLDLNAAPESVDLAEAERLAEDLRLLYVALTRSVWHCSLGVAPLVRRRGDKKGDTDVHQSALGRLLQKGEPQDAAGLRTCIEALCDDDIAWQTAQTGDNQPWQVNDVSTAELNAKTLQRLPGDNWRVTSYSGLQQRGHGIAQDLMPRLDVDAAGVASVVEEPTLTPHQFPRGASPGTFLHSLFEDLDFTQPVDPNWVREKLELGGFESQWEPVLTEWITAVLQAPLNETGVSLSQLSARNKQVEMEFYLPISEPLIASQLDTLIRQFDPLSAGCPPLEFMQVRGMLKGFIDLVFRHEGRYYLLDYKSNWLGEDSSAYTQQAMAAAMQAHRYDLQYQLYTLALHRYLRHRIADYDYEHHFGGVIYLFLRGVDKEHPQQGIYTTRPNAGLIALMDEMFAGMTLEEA

[1] = Counterscreen for AddAB inhibitors: absorbance-based bacterial cell-based high throughput dose response assay for inhibitors of bacterial viability. [Related pubchem assays (depositor defined):AID435030, AID449728, AID449731, AID488942, AID488955, AID488956]; format: functional
[2] = biological target: Phosphoethanolamine/phosphocholine phosphatase (Homo sapiens, UniProt Q8TCT1); assay: SAR assay for compounds that inhibit PHOSPHO1. [Related pubchem assays (depositor defined):AID1545, AID1565, AID1574]
Sequence of Phosphoethanolamine/phosphocholine phosphatase (Q8TCT1 whole entry): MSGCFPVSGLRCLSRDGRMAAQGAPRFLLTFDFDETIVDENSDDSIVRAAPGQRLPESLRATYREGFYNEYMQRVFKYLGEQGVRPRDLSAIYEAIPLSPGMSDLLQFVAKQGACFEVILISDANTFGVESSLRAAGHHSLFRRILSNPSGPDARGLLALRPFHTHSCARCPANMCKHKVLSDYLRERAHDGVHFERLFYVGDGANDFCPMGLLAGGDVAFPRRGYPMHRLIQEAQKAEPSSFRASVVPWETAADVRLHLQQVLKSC

[3] = biological target: T1, Mannose-6-phosphate isomerase (Homo sapiens, UniProt P34949); assay: PMI enzyme inhibitors, confirmation, biochemical, fluorescence intensity (AID 1535)
T1 sequence (P34949 whole entry): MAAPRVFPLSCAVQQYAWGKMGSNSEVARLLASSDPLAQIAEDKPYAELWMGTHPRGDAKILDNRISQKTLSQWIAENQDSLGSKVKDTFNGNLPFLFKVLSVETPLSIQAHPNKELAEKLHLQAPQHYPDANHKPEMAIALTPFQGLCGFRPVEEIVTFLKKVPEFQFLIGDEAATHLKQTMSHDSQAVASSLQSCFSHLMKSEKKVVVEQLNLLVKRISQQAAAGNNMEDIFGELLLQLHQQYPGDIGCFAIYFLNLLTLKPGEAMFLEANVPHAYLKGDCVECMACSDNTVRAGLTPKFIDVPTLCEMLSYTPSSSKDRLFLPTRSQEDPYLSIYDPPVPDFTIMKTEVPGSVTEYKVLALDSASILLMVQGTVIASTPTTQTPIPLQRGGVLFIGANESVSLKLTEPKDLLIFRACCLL

Phosphomannomutase 2 = Phosphomannomutase 2 (Homo sapiens, UniProt O15305); assay: Counter screen SAR assay for PMM2 inhibitors via a fluorescence intensity assay. [Related pubchem assays (depositor defined):AID1545, AID1574]
Sequence of Phosphomannomutase 2 (O15305 whole entry): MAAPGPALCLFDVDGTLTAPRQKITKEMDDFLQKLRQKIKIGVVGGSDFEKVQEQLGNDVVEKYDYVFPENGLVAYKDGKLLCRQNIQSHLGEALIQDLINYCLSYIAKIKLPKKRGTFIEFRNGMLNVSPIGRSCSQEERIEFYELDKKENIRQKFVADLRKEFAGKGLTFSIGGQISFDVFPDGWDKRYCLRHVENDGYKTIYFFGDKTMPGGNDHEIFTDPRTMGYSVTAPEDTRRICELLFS

[4] = biological target: T2, Alkaline phosphatase, tissue-nonspecific isozyme (Homo sapiens, UniProt P05186); assay: human TNAP enzyme inhibitors, SAR follow-up, biochemical, luminescent, dose response (AID 1056)
T2 sequence (P05186 whole entry): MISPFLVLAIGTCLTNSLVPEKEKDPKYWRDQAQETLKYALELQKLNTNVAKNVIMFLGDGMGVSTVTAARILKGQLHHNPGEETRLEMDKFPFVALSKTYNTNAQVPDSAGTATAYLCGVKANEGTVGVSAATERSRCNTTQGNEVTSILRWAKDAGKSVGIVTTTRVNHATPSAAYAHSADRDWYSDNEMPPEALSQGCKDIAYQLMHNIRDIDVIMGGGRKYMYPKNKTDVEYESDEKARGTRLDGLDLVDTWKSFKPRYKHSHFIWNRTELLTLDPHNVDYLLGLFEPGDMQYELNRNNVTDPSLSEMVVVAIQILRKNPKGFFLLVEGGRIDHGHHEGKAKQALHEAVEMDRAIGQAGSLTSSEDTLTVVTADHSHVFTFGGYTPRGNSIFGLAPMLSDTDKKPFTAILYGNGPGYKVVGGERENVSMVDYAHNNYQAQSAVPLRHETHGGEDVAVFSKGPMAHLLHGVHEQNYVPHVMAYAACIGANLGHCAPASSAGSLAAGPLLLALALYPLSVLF

HEK293 [5] = assay: cells; format: functional, cell-based; settings: Homo sapiens
HEK293 [6] = assay: cells; format: functional, cell-based; settings: Homo sapiens; remark: listed apart in the source
HEK293 [7] = assay: NOD1 signaling inhibitors, primary screen, cell-based, luminescence, uHTS (AID 1578); format: functional; settings: Homo sapiens
HEK293 [8] = assay: NOD2 signaling inhibitors in MDP-stimulated cells, cell-based, uHTS, luminescence (AID 2001); format: functional; settings: Homo sapiens

SMILES: CC(=O)N(/N=C/c1ccc([N+](=O)[O-])o1)c1nc2ccccc2c(=O)n1-c1ccccc1
- IC50 (Exodeoxyribonuclease V): > 119 µM (inactive)
- IC50 [1]: 45.9 µM (inactive)

- IC50 [2]: 2.02 µM (inactive)
- IC50 [3]: > 50 µM (inactive)
- IC50 (Phosphomannomutase 2): > 100 µM (inactive)
SMILES: Cc1ccc(-n2sc3c4c(ccc3c2=O)C(=O)c2ccccc2C4=O)cc1

SMILES: CCN(CC)S(=O)(=O)c1cccc(-n2sc3ccccc3c2=O)c1
- IC50 [2]: 0.555 µM (active)
- IC50 [3]: 61.9 µM (active)
- IC50 (Phosphomannomutase 2): > 100 µM (inactive)
- IC50 [4]: > 100 µM (inactive)

SMILES: CCCCCOc1ccc(/C=C/c2c([N+](=O)[O-])c(=O)n(C)c(=O)n2C)cc1
- IC50 (HEK293 [5]): > 20 µM (inactive)
- IC50 (HEK293 [6]): > 20 µM (inactive)
- EC50 (HEK293 [7]): > 20 µM (inactive)
- IC50 (HEK293 [8]): 8.94 µM (active)
